From patent US12630530B2, “FGFR inhibitor compound and use thereof” (HENAN MEDINNO PHARMACEUTICAL TECHNOLOGY CO., LTD., priority 2020, dated 2026)

Tests used:
Format in all cases: biochemical
Conditions in all cases: Table 3; same method as Assay I, different experimental operator
[1] = molecular target: T1, VEGFR2 (Homo sapiens, UniProt P35968); assay: Assay III: kinase inhibition (method of Assay I, different operator), VEGFR2
T1 construct: purchased Carna 08-191
Experimental: (§1) 1×Kinase reaction buffer was formulated with 1×volume of 5× kinase reaction buffer and 4×volume of water; 5 mM MgCl2; and 1 mM DTT.
(§2) 2.3 Screening of Compounds: • 1. Diluting a compound 4-fold in a dilution plate with DMSO, with a starting compound concentration of 2 mM (4 mM for Nentedanib). • 2. Diluting the compound 40-fold into 1× kinase reaction buffer and shaking it on a shaker for 20 minutes. • 3. Formulating 2×FGFR1 V561M/FGFR2 V564F/FGFR3 K650E/VEGFR2 with 1× of enzyme reaction buffer. • 4. Adding 2 μl FGFR1 V561M/FGFR2 V564F/FGFR3 K650E/VEGFR2 kinase (formulated in step 3) to each well of the reaction plate. • 5. Adding 1 μl of the compound diluted in buffer to each well, sealing the plate with a sealing membrane and centrifuging the plate at 1000 g for 30 seconds and leaving it at room temperature for 10 minutes. • 6. Formulating 2.5×TK-substrate-biotin and ATP mixture with 1× enzyme reaction buffer and adding 2 μl of K-substrate-biotin/ATP mixture to the reaction plate. • 7. Sealing the plate with a sealing membrane and centrifuging the plate at 1000 g for 30 seconds and allowing it to react at room temperature for 50 minutes. • 8. Formulating 4×Sa-XL 665 (250 nM) with HTRF assay buffer. • 9. Adding 5 μl Sa-XL 665 and 5 μl TK-Antibody-Cryptate to each well, centrifuging it at 1000 g for 30 seconds, and allowing it to react for 1 hour at room temperature. • 10. Reading fluorescence signals at 615 nm (Cryptate) and 665 nm (XL665) with Biotek. 3. Data Analysis
(§3) 3.1 Calculation of the ratio for each well: the ratio was calculated as 665/615 nm.
(§4) 3.3 Calculation of IC50 and plotting of inhibition curves for the compounds.
The IC50 (half inhibition concentration) of a compound was obtained using the following non-linear fitting equation, wherein data analysis was performed using Graphpad 6.0 software. Y=Bottom+(Top−Bottom)/(1+10^((Log IC50−X)*Hill Slope)) • X: log value of compound concentration; and Y: inhibition rate (% inh) 3.4 Validation of Results
(§5) Data were exported from Envision and analyzed manually. The ratios were converted to inhibition rates and IC50 was calculated by Prism GraphPad 6.0 from the inhibition rates. IC50 was calculated again by the ratios to verify accuracy of the results.
(§6) Assay III: Determination of Inhibitory Activity Against FGFR Mutants

[2] = molecular target: T2, FGFR3 V555M (Homo sapiens, UniProt P22607, V555M); assay: Assay III: inhibitory activity against FGFR mutants (method of Assay I, different operator)
T2 construct: purchased Signalchem F06-12GG
T2 sequence (P22607 23-806 V555M): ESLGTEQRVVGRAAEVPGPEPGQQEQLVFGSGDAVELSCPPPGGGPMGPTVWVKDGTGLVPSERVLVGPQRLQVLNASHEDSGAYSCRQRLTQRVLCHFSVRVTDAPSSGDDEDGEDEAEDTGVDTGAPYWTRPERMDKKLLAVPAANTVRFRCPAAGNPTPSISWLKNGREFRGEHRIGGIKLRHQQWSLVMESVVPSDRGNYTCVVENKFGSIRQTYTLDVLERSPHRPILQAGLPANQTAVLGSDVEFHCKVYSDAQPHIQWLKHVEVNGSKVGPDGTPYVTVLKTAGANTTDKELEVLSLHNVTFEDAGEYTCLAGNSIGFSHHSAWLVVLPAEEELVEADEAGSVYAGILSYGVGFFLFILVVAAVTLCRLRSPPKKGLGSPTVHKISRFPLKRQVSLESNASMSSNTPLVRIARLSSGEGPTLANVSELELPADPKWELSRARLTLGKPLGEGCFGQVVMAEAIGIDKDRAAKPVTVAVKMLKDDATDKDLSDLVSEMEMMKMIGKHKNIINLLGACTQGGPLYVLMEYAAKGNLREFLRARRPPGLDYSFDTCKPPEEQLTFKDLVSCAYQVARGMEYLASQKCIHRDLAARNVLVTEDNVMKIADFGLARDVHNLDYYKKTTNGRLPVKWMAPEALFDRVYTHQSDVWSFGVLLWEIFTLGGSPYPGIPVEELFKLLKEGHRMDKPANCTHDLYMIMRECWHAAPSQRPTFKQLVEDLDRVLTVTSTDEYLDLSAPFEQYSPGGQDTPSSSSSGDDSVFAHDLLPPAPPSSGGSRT
Experimental: as §1
as §2, with “Formulating 2×FGFR1 V561M/FGFR2 V564F/FGFR3 K650E/VEGFR2 with 1× of enzyme reaction buffer. • 4. Adding 2 μl FGFR1 V561M/FGFR2 V564F/FGFR3 K650E/VEGFR2 kinase (formulated in step 3) to each well of the reaction plate. • 5.” left out
as §3, §4
(§7) The IC50 (half inhibition concentration) of a compound was obtained using the following non-linear fitting equation, wherein data analysis was performed using Graphpad 6.0 software.
as §5, §6

[3] = molecular target: T3, FGFR1 V561M (Homo sapiens, UniProt P11362, V561M); assay: as above
T3 construct: purchased Signalchem F04-13G
T3 sequence (P11362 22-822 V561M): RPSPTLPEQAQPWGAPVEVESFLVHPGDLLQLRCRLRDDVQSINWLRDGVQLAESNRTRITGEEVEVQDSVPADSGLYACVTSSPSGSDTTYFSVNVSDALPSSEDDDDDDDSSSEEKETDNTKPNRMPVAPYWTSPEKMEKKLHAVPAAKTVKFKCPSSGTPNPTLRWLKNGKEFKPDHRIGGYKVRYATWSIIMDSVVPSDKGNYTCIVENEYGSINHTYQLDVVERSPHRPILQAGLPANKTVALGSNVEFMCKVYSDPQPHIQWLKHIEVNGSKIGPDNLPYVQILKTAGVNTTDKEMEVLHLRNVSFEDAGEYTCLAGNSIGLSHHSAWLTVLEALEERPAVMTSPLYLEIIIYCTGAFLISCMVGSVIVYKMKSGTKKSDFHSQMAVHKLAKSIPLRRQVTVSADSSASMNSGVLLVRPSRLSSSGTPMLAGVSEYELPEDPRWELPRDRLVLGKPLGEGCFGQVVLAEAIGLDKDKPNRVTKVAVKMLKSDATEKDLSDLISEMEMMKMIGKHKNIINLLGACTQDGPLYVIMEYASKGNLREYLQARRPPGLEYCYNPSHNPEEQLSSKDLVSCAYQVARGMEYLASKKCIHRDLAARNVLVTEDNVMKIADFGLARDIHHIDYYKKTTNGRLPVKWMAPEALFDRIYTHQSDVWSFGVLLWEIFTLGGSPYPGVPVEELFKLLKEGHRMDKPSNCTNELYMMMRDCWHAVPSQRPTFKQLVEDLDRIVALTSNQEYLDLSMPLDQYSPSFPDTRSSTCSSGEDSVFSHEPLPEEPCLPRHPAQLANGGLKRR
Experimental: as §1
as §2, with “Formulating 2×FGFR1 V561M/FGFR2 V564F/FGFR3 K650E/VEGFR2 with 1× of enzyme reaction buffer. • 4. Adding 2 μl FGFR1 V561M/FGFR2 V564F/FGFR3 K650E/VEGFR2 kinase (formulated in step 3) to each well of the reaction plate. • 5.” left out
as §3, §4, §7, §5, §6

[4] = molecular target: T4, FGFR2 V564F (Homo sapiens, UniProt P21802, V564F); assay: as above
T4 construct: purchased Signalchem F05-12FG
T4 sequence (P21802 22-821 V564F): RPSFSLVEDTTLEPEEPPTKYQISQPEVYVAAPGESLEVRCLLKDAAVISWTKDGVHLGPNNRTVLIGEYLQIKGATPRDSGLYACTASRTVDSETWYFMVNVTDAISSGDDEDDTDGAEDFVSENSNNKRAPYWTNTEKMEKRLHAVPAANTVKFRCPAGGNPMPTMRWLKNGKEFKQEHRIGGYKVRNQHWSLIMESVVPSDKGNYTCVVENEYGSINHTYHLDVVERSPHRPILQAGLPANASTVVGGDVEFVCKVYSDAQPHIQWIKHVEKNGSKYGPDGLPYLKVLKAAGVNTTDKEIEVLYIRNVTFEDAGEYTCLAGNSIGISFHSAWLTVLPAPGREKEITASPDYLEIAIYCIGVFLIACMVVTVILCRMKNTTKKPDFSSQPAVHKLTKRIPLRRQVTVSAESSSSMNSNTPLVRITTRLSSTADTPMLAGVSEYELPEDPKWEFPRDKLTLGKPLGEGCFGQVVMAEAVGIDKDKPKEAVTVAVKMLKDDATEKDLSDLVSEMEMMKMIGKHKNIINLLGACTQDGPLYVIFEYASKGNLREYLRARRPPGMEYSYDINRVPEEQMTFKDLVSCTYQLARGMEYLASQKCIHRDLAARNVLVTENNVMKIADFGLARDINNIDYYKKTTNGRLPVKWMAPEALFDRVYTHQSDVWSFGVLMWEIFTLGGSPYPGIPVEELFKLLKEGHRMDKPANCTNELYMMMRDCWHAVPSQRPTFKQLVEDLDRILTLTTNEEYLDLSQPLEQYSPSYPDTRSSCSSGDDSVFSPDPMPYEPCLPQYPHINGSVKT
Experimental: as §1
as §2, with “Formulating 2×FGFR1 V561M/FGFR2 V564F/FGFR3 K650E/VEGFR2 with 1× of enzyme reaction buffer. • 4. Adding 2 μl FGFR1 V561M/FGFR2 V564F/FGFR3 K650E/VEGFR2 kinase (formulated in step 3) to each well of the reaction plate. • 5.” left out
as §3, §4, §7, §5, §6

T1 sequence (P35968 20-1356): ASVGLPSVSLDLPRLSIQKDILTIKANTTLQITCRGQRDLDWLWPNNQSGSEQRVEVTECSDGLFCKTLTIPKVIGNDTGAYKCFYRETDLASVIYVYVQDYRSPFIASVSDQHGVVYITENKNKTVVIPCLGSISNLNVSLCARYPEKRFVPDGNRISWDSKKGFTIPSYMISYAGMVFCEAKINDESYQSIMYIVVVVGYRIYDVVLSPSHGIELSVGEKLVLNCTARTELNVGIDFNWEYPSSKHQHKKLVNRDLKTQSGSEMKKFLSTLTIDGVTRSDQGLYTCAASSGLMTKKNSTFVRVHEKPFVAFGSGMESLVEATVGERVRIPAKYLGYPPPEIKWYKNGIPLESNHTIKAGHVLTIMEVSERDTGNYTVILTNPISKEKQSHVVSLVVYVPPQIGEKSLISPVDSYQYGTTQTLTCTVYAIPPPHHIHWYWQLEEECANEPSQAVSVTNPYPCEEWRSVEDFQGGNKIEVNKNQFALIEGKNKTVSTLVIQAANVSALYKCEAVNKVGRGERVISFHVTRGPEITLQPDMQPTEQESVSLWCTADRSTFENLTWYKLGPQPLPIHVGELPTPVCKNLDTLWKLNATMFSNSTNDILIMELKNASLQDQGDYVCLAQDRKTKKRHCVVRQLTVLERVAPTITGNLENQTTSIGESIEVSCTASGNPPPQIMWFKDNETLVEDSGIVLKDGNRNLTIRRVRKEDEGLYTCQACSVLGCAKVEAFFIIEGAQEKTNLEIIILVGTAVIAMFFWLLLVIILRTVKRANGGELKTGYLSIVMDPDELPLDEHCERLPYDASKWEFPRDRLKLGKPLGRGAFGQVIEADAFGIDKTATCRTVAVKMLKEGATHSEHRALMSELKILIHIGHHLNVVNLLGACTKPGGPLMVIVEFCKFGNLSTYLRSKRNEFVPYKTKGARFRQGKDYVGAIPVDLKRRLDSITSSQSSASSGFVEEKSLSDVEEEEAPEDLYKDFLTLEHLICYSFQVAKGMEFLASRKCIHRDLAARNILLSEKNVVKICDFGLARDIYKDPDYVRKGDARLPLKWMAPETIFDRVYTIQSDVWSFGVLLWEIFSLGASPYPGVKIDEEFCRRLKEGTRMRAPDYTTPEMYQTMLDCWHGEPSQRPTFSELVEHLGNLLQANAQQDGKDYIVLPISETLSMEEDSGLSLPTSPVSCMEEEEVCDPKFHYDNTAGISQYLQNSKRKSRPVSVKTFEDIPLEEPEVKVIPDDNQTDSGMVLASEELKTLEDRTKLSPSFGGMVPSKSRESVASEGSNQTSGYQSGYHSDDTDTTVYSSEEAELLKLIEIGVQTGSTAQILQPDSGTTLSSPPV

What does the source list for `C[C@@H](Oc1ccc2[nH]nc(C(=O)Nc3cnn(CC4CCN(C)C4)c3)c2c1)c1c(Cl)cncc1Cl` (stereo partly drawn) [Compound 41, 5-((R)-1-(3,5-dichloropyridin-4-yl)ethoxy)-N-(1-((1-methylpyrrolidin-3-yl)methyl)-1H-pyrazol-4-yl)-1H-indazole-3-carboxamide]?
IC50 [1]: 84 nM; IC50 [2]: 0.22 nM; IC50 [3]: 0.37 nM; IC50 [4]: 0.18 nM

`C[C@@H](Oc1ccc2[nH]nc(C(=O)Nc3cnn(CC4CCCN4C)c3)c2c1)c1c(Cl)cncc1Cl` (stereo partly shown) [Compound 42] was tested. Which IC50 [1] did it give?
The IC50 was 169 nM.

And the IC50 [2]?
Its IC50 is 0.44 nM.

And the IC50 [3]?
The IC50 was 1.1 nM.

And the IC50 [4]?
Its IC50 is 0.43 nM.

Which IC50 [1] does the source give for `C[C@@H](Oc1ccc2[nH]nc(C(=O)Nc3cnn(C4CCN(C)C4)c3)c2c1)c1c(Cl)cncc1Cl` (stereo partly drawn) [Compound 43, 5-((R)-1-(3,5-dichloropyridin-4-yl)ethoxy)-N-(1-(1-methylpyrrolidin-3-yl)-1H-pyrazol-4-yl)-1H-indazole-3-carboxamide] here?
The IC50 was 62 nM.

What about the IC50 [2] of the same molecule?
The IC50 was 0.14 nM.

What about the IC50 [3] of the same molecule?
The IC50 was 0.38 nM.

What about the IC50 [4] of the same molecule?
The IC50 was 0.15 nM.

Which results are given for `C[C@@H](Oc1ccc2[nH]nc(C(=O)Nc3cnn(CC4CCCN(C)C4)c3)c2c1)c1c(Cl)cncc1Cl` (stereo partly drawn) [Compound 44, 5-((R)-1-(3,5-dichloropyridin-4-yl)ethoxy)-N-(1-((1-methylpiperidin-3-yl)methyl)-1H-pyrazol-4-yl)-1H-indazole-3-carboxamide]?
IC50 [1]: 145 nM; IC50 [2]: 0.55 nM; IC50 [3]: 1.1 nM; IC50 [4]: 0.39 nM

What does the source list for `C[C@@H](Oc1ccc2[nH]nc(C(=O)Nc3cnn(CC4CCCCN4C)c3)c2c1)c1c(Cl)cncc1Cl` (stereo partly drawn) [Compound 45, 5-((R)-1-(3,5-dichloropyridin-4-yl)ethoxy)-N-(1-((1-methylpiperidin-2-yl)methyl)-1H-pyrazol-4-yl)-1H-indazole-3-carboxamide]?
IC50 [1]: 62 nM; IC50 [2]: 0.14 nM; IC50 [3]: 0.34 nM; IC50 [4]: 0.1 nM

What does the source list for `CCC(Oc1ccc2[nH]nc(C(=O)Nc3cnn(C)c3)c2c1)c1c(Cl)cncc1Cl` (stereo not shown) [Compound 46, 5-(1-(3,5-dichloropyridin-4-yl)propoxy)-N-(1-methyl-1H-pyrazol-4-yl)-1H-indazole-3-carboxamide]?
IC50 [1]: 184 nM; IC50 [2]: 2.1 nM; IC50 [3]: 3.4 nM; IC50 [4]: 1 nM

Which IC50 [1] does the source give for `C[C@@H](Oc1ccc2[nH]nc(C(=O)Nc3cnn(C4CCOCC4)c3)c2c1)c1c(Cl)cncc1Cl` [Compound 47, (R)-5-(1-(3,5-dichloropyridin-4-yl)ethoxy)-N-(1-(tetrahydro-2H-pyran-4-yl)-1H-pyrazol-4-yl)-1H-indazole-3-carboxamide] here?
The IC50 was 194 nM.

And the IC50 [2]?
Its IC50 is 2.1 nM.

And the IC50 [3]?
The IC50 was 2.3 nM.

What about the IC50 [4] of the same molecule?
The IC50 was 1.2 nM.

How did the IC50 [1] turn out when `C[C@@H](Oc1ccc2[nH]nc(C(=O)Nc3cnn(C4CCC(O)CC4)c3)c2c1)c1c(Cl)cncc1Cl` (stereo partly drawn) [Compound 48, (R)-5-(1-(3,5-dichloropyridin-4-yl)ethoxy)-N-(1-(4-hydroxycyclohexyl)-1H-pyrazol-4-yl)-1H-indazole-3-carboxamide] was run?
Its IC50 is 115 nM.

What about the IC50 [2] of the same molecule?
Its IC50 is 0.82 nM.

What about the IC50 [3] of the same molecule?
The IC50 was 1 nM.

What about the IC50 [4] of the same molecule?
The IC50 was 0.31 nM.

What does the source list for `C[C@@H](Oc1ccc2[nH]nc(C(=O)Nc3cnn(Cc4cccnc4)c3)c2c1)c1c(Cl)cncc1Cl` [Compound 49, (R)-5-(1-(3,5-dichloropyridin-4-yl)ethoxy)-N-(1-(pyridin-3-ylmethyl)-1H-pyrazol-4-yl)-1H-indazole-3-carboxamide]?
IC50 [1]: 110 nM; IC50 [2]: 1.4 nM; IC50 [3]: 0.51 nM; IC50 [4]: 0.55 nM

Which results are given for `C[C@@H](Oc1ccc2[nH]nc(C(=O)Nc3cnn(Cc4ccncc4)c3)c2c1)c1c(Cl)cncc1Cl` [Compound 50, (R)-5-(1-(3,5-dichloropyridin-4-yl)ethoxy)-N-(1-(pyridin-4-ylmethyl)-1H-pyrazol-4-yl)-1H-indazole-3-carboxamide]?
IC50 [1]: 152 nM; IC50 [2]: 0.64 nM; IC50 [3]: 1.7 nM; IC50 [4]: 0.37 nM
